# Reference: the supplement of paper PMC10331698
# ± gives the standard deviation of the averaged measurements.
# Key:
# Assay in all cases: level (log10 ratio to DMSO vehicle control); higher = higher biomarker level / cell amount than vehicle control
# Conditions in all cases: in DMSO
# Heptafluorobutyl iodide = compound: FC(F)(F)C(F)(F)C(F)(F)CI [Heptafluorobutyl iodide]
# Experimental: (§1)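 BioMAP Diversity Plus panel of 12 human primary cell co-culture systems (3C, 4H, LPS, SAg, BT, BF4T, BE3C, CASM3C, HDF3CGF, KF3CT, MyoF, Mphg). Compounds were added 1 h before stimulation and left for 24 h (MyoF 48 h; BT 72 h for soluble read-outs or 6 d for IgG). Biomarkers were read by ELISA, cytotoxicity by SRB, PBMC viability and proliferation by Alamar Blue. Each well value was divided by the mean of 8 DMSO control wells on the same plate and log10 transformed; duplicate blinded samples were tested at 4 concentrations.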
# [1] = compound: O=S(=O)(Cl)C(F)(F)C(F)(F)C(F)(F)C(F)(F)C(F)(F)C(F)(F)C(F)(F)C(F)(F)F [Perfluoro-1-octanesulfonyl chloride]
# Experimental: as §1
# [2] = compound: O=C(O)C(F)(F)C(F)(F)C(F)(F)C(F)(F)C(F)(F)C(F)(F)C(F)(F)C(F)(F)C(F)(F)C(F)F [11-H-Perfluoroundecanoic acid]
# Experimental: as §1
# [3] = compound: FC(F)(F)C(F)(F)CNCC(F)(F)C(F)(F)F [Bis(1H,1H-perfluoropropyl)amine]
# Experimental: as §1
# [4] = compound: NS(=O)(=O)C(F)(F)C(F)(F)C(F)(F)C(F)(F)C(F)(F)C(F)(F)F [Perfluorohexanesulfonamide]
# Experimental: as §1
Test System,level (log10) (Heptafluorobutyl iodide; 6700 nM),level (log10) (Heptafluorobutyl iodide; 20000 nM),level (log10) (Heptafluorobutyl iodide; 60000 nM),level (log10) ([1]; 6700 nM),level (log10) ([1]; 20000 nM),level (log10) ([1]; 60000 nM),level (log10) ([2]; 6700 nM),level (log10) ([2]; 20000 nM),level (log10) ([3]; 6700 nM),level (log10) ([3]; 20000 nM),level (log10) ([3]; 60000 nM),level (log10) ([4]; 6700 nM),level (log10) ([4]; 20000 nM),level (log10) ([4]; 60000 nM)
CASM3C:HLA-DR,-0.016 ± 0.024,-0.022 ± 0.0014,-0.008 ± 0.0028,-0.022 ± 0.014,-0.053 ± 0.017,-0.04 ± 0.064,-0.0085 ± 0.0021,-0.02 ± 0.0028,-0.013 ± 0.0057,-0.0105 ± 0.0021,0.015 ± 0.058,0.002 ± 0.03,0 ± 0.0071,0.005 ± 0.0042
4H:CD87/uPAR,0.0585 ± 0.04,0.0055 ± 0.0035,-0.024 ± 0.025,-0.0165 ± 0.054,-0.023 ± 0.048,-0.117 ± 0.053,-0.0115 ± 0.033,-0.0295 ± 0.05,-0.0665 ± 0.029,-0.027 ± 0.035,-0.047 ± 0.064,-0.01 ± 0.011,0.0115 ± 0.013,-0.0605 ± 0.047
MyoF:bFGF,0.0115 ± 0.019,0.01 ± 0.0028,0.0115 ± 0.005,-0.007 ± 0.014,-0.039 ± 0.0014,-0.029 ± 0.034,0.006 ± 0.0099,0.005,-0.0065 ± 0.013,-0.0045 ± 0.005,0.013 ± 0.025,-0.0005 ± 0.00071,-0.001 ± 0.0042,-0.004 ± 0.023
3C:CD106/VCAM-1,-0.0115 ± 0.00071,-0.0045 ± 0.028,-0.0045 ± 0.0078,0.008 ± 0.013,0.028 ± 0.0099,0.0325 ± 0.013,-0.0105 ± 0.023,-0.011 ± 0.0099,-0.016 ± 0.027,-0.027 ± 0.037,-0.0025 ± 0.03,-0.008 ± 0.0014,-0.0125 ± 0.0092,-0.025 ± 0.016
4H:CD62P/P-selectin,-0.0515 ± 0.06,-0.058 ± 0.061,-0.0135 ± 0.053,0.0315 ± 0.012,0.0485 ± 0.018,0.084 ± 0.031,0.0165 ± 0.0092,0.035 ± 0.031,-0.0155 ± 0.025,-0.02 ± 0.0028,0.005 ± 0.013,-0.006 ± 0.014,0.055 ± 0.062,-0.0045 ± 0.012
HDF3CGF:Collagen I,0.0275 ± 0.03,0.021 ± 0.0099,0.065 ± 0.047,0.001 ± 0.0057,-0.01 ± 0.0071,0.0135 ± 0.066,-0.093 ± 0.034,-0.077 ± 0.025,-0.0295 ± 0.015,-0.015 ± 0.017,0.0085 ± 0.056,0.005 ± 0.035,0.0075 ± 0.011,-0.0435 ± 0.015
lMphg:CD40,-0.025 ± 0.031,-0.0065 ± 0.013,-0.024 ± 0.0057,-0.0165 ± 0.019,-0.01,-0.0065 ± 0.0035,-0.0365 ± 0.005,-0.04 ± 0.021,0.006 ± 0.0057,0.006 ± 0.0028,-0.0065 ± 0.0092,-0.02 ± 0.021,-0.043 ± 0.031,-0.146 ± 0.021
HDF3CGF:EGFR,-0.0495 ± 0.064,-0.054 ± 0.072,-0.0055 ± 0.04,-0.082 ± 0.045,-0.0785 ± 0.015,0.031 ± 0.035,-0.022 ± 0.011,-0.124 ± 0.018,-0.0205 ± 0.06,-0.0615 ± 0.14,0.034 ± 0.025,0.0525 ± 0.0064,0.043 ± 0.024,-0.103 ± 0.059
MyoF:Collagen I,-0.0015 ± 0.0035,-0.0195 ± 0.005,0.013 ± 0.018,-0.009,-0.0185 ± 0.00071,-0.0665 ± 0.00071,-0.0625 ± 0.0092,-0.312 ± 0.023,-0.005 ± 0.0057,-0.014 ± 0.0099,0.0035 ± 0.015,0.024 ± 0.013,0.0515 ± 0.013,0.0495 ± 0.022
lMphg:CXCL8/IL-8,-0.0335 ± 0.028,-0.0275 ± 0.00071,-0.0415 ± 0.0078,-0.002 ± 0.017,0.0335 ± 0.00071,0.115 ± 0.061,-0.0045 ± 0.0078,-0.031 ± 0.0042,0 ± 0.011,0.0075 ± 0.069,-0.0035 ± 0.053,0.05 ± 0.014,0.083 ± 0.011,0.146 ± 0.0085
